Ends that are not written are not given here.
Legend:
[1] = tested on: clonogenic cells of the small intestine (crypts); test: Small intestine crypt survival after 13Gy X-irradiation in BDF1 mice; format: in vivo
Text: Radiation exposure may damage or kill cells. Therefore, stem and clonogenic cells of the small intestine were exposed to radiation, treated and monitored to observe the effectiveness of the treatment. There are thought to be between four and sixteen actual stem cells in each crypt of the small intestine. There are also a further reserve of clonogneic cells which are capable of regenerating the crypt when all the actual stem cells have been killed. The survival of these clonogenic cells is therefore key to the survival of the crypt and the restoration of an intact epithelial lining following cytotoxic injury (only one clonogenic cell need survive to ensure the survival of the crypt, and therefore maintenance of an intact epithelium). Growth factors and related molecules can be used to manipulate the sensitivity of these cells to cytotoxic agents, and thereby reduce the severity of gastrointestinal and oral mucositis. Factors given prior to a cytotoxic insult may increase clonogenic cell number (thereby increasing the probability of clonogen survival) or act to arrest the cell cycle in such cells (thereby making them more resistant to damage or death). […] A combination of both protocols could give maximum protection to the epithelium.
36 adult male BDF1 mice (aged 10-12 weeks) were used. The animals were divided into 6 groups and were treated as follows: (1) Control mice, (2) Irradiated, untreated mice, (3) Mice receiving 3 mg/kg thymosin ip 3 hrs prior to irradiation, (4) Mice receiving vehicle ip 3 hrs prior to irradiation, (5) Mice receiving 3 mg/kg thymosin ip 3 times daily for 3 days prior to irradiation, (6) Mice receiving vehicle ip 3 times daily for 3 days prior to irradiation.
The injections were given at 9:00 (3 times treatment) or 12:00 (1 time treatment). At 3:00 on day 3, intestinal damage was induced using a single dose of 13Gy (Gray) X-irradiation.
4 days after irradiation the animals were culled. The small intestine was removed and fixed in Carnoy's fixative prior to processing for histological analysis. 3 um sections were cut and stained with haematoxylin and eosin. Surviving crypts with one or more clonogenic cells are clearly visible in the irradiated sections. […]
For each animal ten intestinal circumferences were analyzed (60 per group). […] The number of surviving crypts per circumference were scored and the average per group determined. Only crypts containing 10 or more strongly H&E stained cells (excluding Paneth cells) and only intact circumference not containing Peyers patches were scored (Peyers patches influence both the number of crypts in a normal circumference and the ability of a crypt to survive insult).
The average crypt width (measured at its widest point) was also measured in order to correct for scoring errors due to crypt size difference. […]

[2] = subcutaneously injected; cited from earlier work

With “Thymosin alpha 1 (SDAAVDTSSEITTKDLKEKKEVVEEAEN; not fully specified (N-terminus); UniProt P06454 2-29, looked up) [28-amino acid thymic peptide with immunomodulatory properties, homologous to a natural product isolated from thymosin fraction 5 of calf thymus]” the “survival of treatment and adverse effects” value ([1]; 3 mg/kg ip, single or triple dose, BDF1 mice, 13Gy X-irradiation) was “no obvious adverse effects”, the “increase in surviving crypts” value ([1]; triple dose thymosin vs triple dose vehicle control) was 77% and the protection factor ([1]; triple dose thymosin vs triple dose vehicle control (5.3 vs 3)) was 1.77. For the same substance, the “corrected crypt survival (corrected number of crypts/circumference)” value ([1]; triple dose: 3 mg/kg ip 3 times daily for 3 days prior to 13Gy X-irradiation, BDF1 mice, 4 days after irradiation) was 5.3 crypts/circumference and the plasma half-life [2] was “about two”.

From patent US7897567B2, “Methods of protecting against radiation damage using alpha thymosin” (SciClone Pharmaceuticals, Inc., priority 2002, dated 2011)
